Common to all, as to format: in vitro ADME
In series [1] the target is T1, CYP2C19 (Homo sapiens, UniProt P33261).
T1 construct: Pooled human liver microsomes (HLM, LOT 32556) were purchased from BD Gentest Corporation; tissue BD Gentest Corporation LOT 32556; host or cells: pooled human liver microsomes
As to the kind of experiment: CYP inhibition in human liver microsomes, substrate cocktail, LC-MS/MS (S-mephenytoin). Conditions: metabolite 4-hydroxymephenytoin, 95% CI in brackets, read-out: IC50 for HLM, CYP2C19. The text has this:
(§1) Positive controls (furafyline for CYP1A2, montelukast for CYP2C8, sulfaphenazole for CYP2C9, S-(+)-N-3-benzylnirvanol for CYP2C19, quinidine for CYP2D6, ketoconazole for CYP3A4) and specific substrates (phenacetin for CYP1A2, paclitaxel for CYP2C8, diclofenac for CYP2C9, S-mephenytoin for CYP2C19, dextromethorphan for CYP2D6, midazolam for CYP3A4) are consistent with our previous papers. The substrates were used at concentrations approximately equal to their respective Michaelis-Menten constant (Km) values: 10 μM phenacetin, 5 μM paclitaxel, 5 μM diclofenac, 200 μM S-mephenytoin, 5 μM dextromethorphan, and 2 μM midazolam. NADP^+ was added after a 15 min preincubation of all other components at 37 °C. After a given incubation time (30 min), the reactions were terminated by addition of 60 μL ice-cold acetonitrile containing gemfibrozil and buspirone as internal standards. Incubation samples were stored at −80 °C until used in liquid chromatography-tandem mass spectrometry (LC-MS/MS) analysis. The mixture was centrifuged at 3,500 rpm for 5 min. The supernatant was mixed with equal volume of a 1:1 mixture of methanol and water and 20 μL of the final mixture was used for LC-MS/ MS analysis. […]
(§2) The CYP inhibition potential were evaluated by measuring the formation of one or more metabolites of the test substrates. […]
A general note: Liver microsomes are a subcellular fraction often used to study metabolism.

Series [2] deals with T2, CYP3A4 (Homo sapiens, UniProt P08684).
T2 construct: Pooled human liver microsomes (HLM, LOT 32556) were purchased from BD Gentest Corporation; tissue BD Gentest Corporation LOT 32556; host or cells: pooled human liver microsomes
T2 sequence (P08684 whole entry): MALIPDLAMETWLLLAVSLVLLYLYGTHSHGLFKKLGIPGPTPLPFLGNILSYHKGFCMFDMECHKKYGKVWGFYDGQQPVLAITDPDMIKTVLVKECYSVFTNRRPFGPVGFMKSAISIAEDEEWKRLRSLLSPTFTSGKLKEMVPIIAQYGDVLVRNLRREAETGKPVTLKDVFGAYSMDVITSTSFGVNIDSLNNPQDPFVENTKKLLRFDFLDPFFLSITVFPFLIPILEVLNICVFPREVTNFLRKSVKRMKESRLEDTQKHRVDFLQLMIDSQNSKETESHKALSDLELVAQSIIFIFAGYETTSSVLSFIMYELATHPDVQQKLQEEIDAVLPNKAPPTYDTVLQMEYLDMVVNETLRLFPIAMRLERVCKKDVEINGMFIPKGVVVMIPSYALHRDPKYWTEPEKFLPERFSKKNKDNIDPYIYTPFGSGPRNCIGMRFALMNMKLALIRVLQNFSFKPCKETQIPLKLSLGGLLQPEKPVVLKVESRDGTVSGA
Kind of series: CYP inhibition in human liver microsomes, substrate cocktail, LC-MS/MS (midazolam). To be noted: metabolite 1-hydroxymidazolam, read-out: IC50 for HLM, CYP3A4.
Excerpt: as §1, §2

Series [3] concerns the target T3, CYP2D4 (Rattus norvegicus, UniProt Q64680).
T3 sequence (Q64680 1-500): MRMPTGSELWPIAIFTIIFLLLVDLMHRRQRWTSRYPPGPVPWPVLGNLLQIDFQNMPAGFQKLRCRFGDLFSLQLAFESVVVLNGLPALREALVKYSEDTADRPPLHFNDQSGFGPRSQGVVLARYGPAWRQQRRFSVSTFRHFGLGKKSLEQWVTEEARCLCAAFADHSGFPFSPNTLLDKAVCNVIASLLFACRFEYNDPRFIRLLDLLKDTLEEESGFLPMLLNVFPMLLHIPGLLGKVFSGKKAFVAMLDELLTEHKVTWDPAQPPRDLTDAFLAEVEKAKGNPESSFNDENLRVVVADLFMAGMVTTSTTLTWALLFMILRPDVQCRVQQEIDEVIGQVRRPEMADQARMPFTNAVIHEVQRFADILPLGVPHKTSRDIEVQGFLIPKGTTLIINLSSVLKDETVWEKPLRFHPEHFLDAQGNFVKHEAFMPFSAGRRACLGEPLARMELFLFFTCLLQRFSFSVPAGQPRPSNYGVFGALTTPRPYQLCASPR
As to the kind of experiment: CYP inhibition in rat liver microsomes, substrate cocktail, LC-MS/MS (dextromethorphan). Conditions: pH 7.4, probe dextromethorphan 5 μM, read-out: IC50 for RLM, CYP2D4 (table row CYP2D6).
Excerpt: as §1, §2

In series [4] the target is T4, CYP1A2 (Rattus norvegicus, UniProt P04799).
T4 sequence (P04799 1-513): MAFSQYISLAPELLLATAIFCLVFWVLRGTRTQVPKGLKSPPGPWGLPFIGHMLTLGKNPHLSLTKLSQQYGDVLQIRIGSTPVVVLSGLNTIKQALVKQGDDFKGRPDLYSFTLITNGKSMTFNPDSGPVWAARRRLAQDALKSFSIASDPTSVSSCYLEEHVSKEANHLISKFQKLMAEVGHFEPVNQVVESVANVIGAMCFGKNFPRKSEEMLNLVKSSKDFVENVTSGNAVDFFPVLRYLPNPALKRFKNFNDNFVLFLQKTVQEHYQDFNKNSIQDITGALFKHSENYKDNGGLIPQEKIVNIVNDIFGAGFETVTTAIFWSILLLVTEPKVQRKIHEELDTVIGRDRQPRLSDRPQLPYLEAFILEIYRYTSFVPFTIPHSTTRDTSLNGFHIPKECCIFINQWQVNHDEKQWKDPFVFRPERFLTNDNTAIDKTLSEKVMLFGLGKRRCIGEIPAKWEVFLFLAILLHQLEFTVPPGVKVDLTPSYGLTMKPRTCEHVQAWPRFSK
Kind of series: CYP inhibition in rat liver microsomes, substrate cocktail, LC-MS/MS (phenacetin). Set-up: Pooled rat liver microsomes were prepared from three male Sprague-Dawley rats; from tissue; host or cells: pooled liver microsomes of three male Sprague-Dawley rats, prepared at HD Biosciences Co. Conditions: read-out: IC50 for RLM, CYP1A2.
Excerpt: as §1, §2

T1 sequence (P33261 whole entry): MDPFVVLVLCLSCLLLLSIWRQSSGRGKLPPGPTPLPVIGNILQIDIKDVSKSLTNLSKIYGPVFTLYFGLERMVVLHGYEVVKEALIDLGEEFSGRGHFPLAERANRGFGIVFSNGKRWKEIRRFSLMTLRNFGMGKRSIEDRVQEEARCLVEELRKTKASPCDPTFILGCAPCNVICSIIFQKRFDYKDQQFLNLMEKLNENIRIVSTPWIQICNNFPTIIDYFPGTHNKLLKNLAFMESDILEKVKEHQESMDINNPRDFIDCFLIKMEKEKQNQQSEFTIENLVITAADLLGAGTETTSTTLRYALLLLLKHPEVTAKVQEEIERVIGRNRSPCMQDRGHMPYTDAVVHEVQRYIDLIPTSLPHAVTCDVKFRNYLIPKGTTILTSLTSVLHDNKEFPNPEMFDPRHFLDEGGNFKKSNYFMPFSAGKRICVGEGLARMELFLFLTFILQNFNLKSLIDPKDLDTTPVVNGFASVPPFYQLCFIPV

As a reminder, the IC50 is the concentration that gives 50% inhibition. As to `O=C(O)[C@H]1O[C@@H](Oc2cc3oc(-c4ccc(O)cc4)cc(=O)c3c(O)c2O)[C@H](O)[C@@H](O)[C@@H]1O` [scutellarin, Scutellarin], the IC50 in series [1] is 63.8 µM; in series [2], greater than 100 µM; in series [4] it was greater than 100 µM. The IC50 at 30 min in series [3] is greater than 100 µM.

(Values after PMC6271944 (Molecules, 2014).)
